Assay results: US9926269B2, “Beta-lactam cholesterol absorption inhibitors” (Rudjer Boskovic Institute, priority 2013, dated 2018)

Key:
Format in all cases: cell-based
[1] = Cytotoxicity assay (MTT cell proliferation assay), HepG2 cells; settings: human, 72 h incubation, read-out: HepG2 LC50
Method: (§1) The cells were grown at 37° C. in a humidified 5% CO2 incubator. Stable transfection of MDCKII cells with human NPC1L1 protein was performed using the Lipofectamine LTX (Invitrogen, USA) according to the manufecturer's protocol. Selection with 1000 μg/mL G418 (Sigma-Aldrich, Germany) was started 2 days after transfection. The concentration of G418 was decreased to 500 μg/mL after 14 days. Transfected cells were maintained in DMEM (Dulbecco's Modified Eagle Medium) containing 100 units/mL penicillin and 100 μg/mL streptomycin supplemented with 10% FCS and 500 μg/mL G418.
(§2) For the cytotoxicity determination, MDCKII, hNPC1L1/MDCKII and HepG2 cells were seeded in 96-well microtiter plates on day 0 at the density of 3000 cells/well. […] The compound cytotoxicity was assessed on day 4 performing the MTT cell proliferation assay (Sigma-Aldrich, Germany) which detects mitochondrial dehydrogenase activity in viable cells. (Mosmann, T. J. Immunol. Methods 1983, 65, 55.) The results are expressed as LC50 and the values for each compound were calculated from dose-response curves using linear regression analysis. Each concentration was tested in quadruplicate in three independent experiments (Table 1).

[2] = Cytotoxicity assay (MTT cell proliferation assay), MDCKII cells; settings: dog, 72 h incubation, read-out: MDCKII LC50
Method: as §1, §2

[3] = Cytotoxicity assay (MTT cell proliferation assay), hNPC1L1/MDCKII cells; settings: dog, MDCKII cells stably expressing human NPC1L1 (hNPC1L1/MDCKII), 72 h incubation, read-out: hNPC1L1MDCKII LC50
Method: as §1, §2

[4] = system: MDCKII cells stably expressing human NPC1L1 (hNPC1L1/MDCKII); assay: as above; settings: 72 h incubation, read-out: hNPC1L1MDCKII LC50
Method: as §1, §2

Question: What does the source list for O=C1[C@H](NC[C@@H](O)c2ccc(F)cc2)[C@@H](c2ccc(O)cc2)N1c1ccc(F)cc1 [Compound 9, (3R,4R)-3-[(2S)-2-(4-fluorophenyl)-2-hydroxyethylamino]-1-(4-fluorophenyl)-4-(4-hydroxyphenyl)azetidin-2-one]?
Answer: CC50 at 72 h [1]: > 100 µM; CC50 at 72 h [2]: > 100 µM; CC50 at 72 h [3]: > 100 µM

Question: For O=C1[C@H](NC[C@H](O)c2ccc(F)cc2)[C@@H](c2ccc(O)cc2)N1c1ccc(F)cc1 [Compound 8, (3R,4R)-3-[(2R)-2-(4-fluorophenyl)-2-hydroxyethylamino]-1-(4-fluorophenyl)-4-(4-hydroxyphenyl)azetidin-2-one], which CC50 at 72 h [1] is on record?
Answer: > 100 µM

Question: And the CC50 at 72 h [2]?
Answer: > 100 µM

Question: And the CC50 at 72 h [3]?
Answer: > 100 µM

Question: For O=C(/C=C/c1ccc(F)cc1)N[C@H]1C(=O)N(c2ccc(F)cc2)[C@@H]1c1ccc(O)cc1 [Compound 3, (E)-1-[(3R,4R)-1-(4-fluorophenyl)-4-(4-hydroxyphenyl)-2-oxo-3-azetidinylamino]-3-(4-fluorophenyl)-2-propen-1-one], which CC50 [4] is on record?
Answer: 63.3 µM

Question: Which CC50 at 72 h [1] does the source give for O=C1[C@H](NCC(O)c2ccc(F)cc2)[C@@H](c2ccc(O)cc2)N1c1ccc(F)cc1 (mixture of isomers) [8/9-70/30, (3R,4R)-3-[(2R/S)-2-(4-fluorophenyl)-2-hydroxyethylamino]-1-(4-fluorophenyl)-4-(4-hydroxyphenyl)azetidin-2-one] here?
Answer: > 100 µM

Question: What about the CC50 at 72 h [2] of the same compound?
Answer: > 100 µM

Question: What about the CC50 at 72 h [3] of the same compound?
Answer: > 100 µM
